According to ChEMBL document CHEMBL1154960, “Development of improved inhibitors of wall teichoic acid biosynthesis with potent activity against Staphylococcus aureus” (Bioorg Med Chem Lett, 2010):
Activity calls are given as the source filed them. The rule behind the calls is not given here.

Each molecule was assayed on Staphylococcus aureus (assay: Antibacterial activity against tarO deficient Staphylococcus aureus RN4220 assessed as growth inhibition at 100 uM after 12 hrs by optical density plate reader method). Conditions: not given.
Assay type: functional

Q: How did the Activity turn out when Cc1ccc(S(=O)(=O)c2nnn3c2nc(NCC2CCCO2)c2ccccc23)cc1 (centres undefined) was run?
A: inactive

Q: Cc1ccc(Nc2nc3c(S(=O)(=O)c4ccccc4)nnn3c3ccc(Cl)cc23)c(C)c1 was tested. Which Activity did it give?
A: inactive

Q: How did the Activity turn out when CCOC(=O)c1nnn2c1nc(N(CC)CC)c1ccccc12 was run?
A: inactive

Q: With COCCCNc1nc2c(S(=O)(=O)c3ccc(C)c(C)c3)nnn2c2ccc(Cl)cc12 as the molecule, how does the Activity read?
A: inactive

Q: CCOC(=O)C1CCN(c2nc3c(S(=O)(=O)c4ccc(C)c(C)c4)nnn3c3ccc(Cl)cc23)CC1 was tested. Which Activity did it give?
A: inactive

Q: How did the Activity turn out when CC1CCN(c2nc3c(S(=O)(=O)c4ccccc4)nnn3c3ccc(Cl)cc23)CC1 was run?
A: inactive

Q: With CCc1ccc(S(=O)(=O)c2nnn3c2nc(N2CCN(c4ccccc4)CC2)c2cc(Cl)ccc23)cc1 as the molecule, how does the Activity read?
A: inactive

Q: For Cc1ccc(S(=O)(=O)c2nnn3c2nc(NCCC(C)C)c2cc(Cl)ccc23)cc1C, which Activity is on record?
A: inactive

Q: With CCc1ccc(S(=O)(=O)c2nnn3c2nc(Nc2ccc(F)cc2)c2cc(Cl)ccc23)cc1 as the molecule, how does the Activity read?
A: inactive

Q: CCOC(=O)C1CCCN(c2nc3c(S(=O)(=O)c4ccccc4)nnn3c3ccccc23)C1 (centres undefined) was tested. Which Activity did it give?
A: inactive

Q: O=S(=O)(c1ccccc1)c1nnn2c1nc(N1CCN(c3ccccc3)CC1)c1cc(Cl)ccc12 was tested. Which Activity did it give?
A: inactive

Q: Cc1ccc(C)c(N2CCN(c3nc4c(S(=O)(=O)c5ccccc5)nnn4c4ccc(Cl)cc34)CC2)c1 was tested. Which Activity did it give?
A: inactive

Q: For CCOC(=O)C1CCN(c2nc3c(S(=O)(=O)c4ccccc4)nnn3c3ccc(Cl)cc23)CC1, which Activity is on record?
A: inactive

Q: COc1ccc(Nc2nc3c(S(=O)(=O)c4ccccc4)nnn3c3ccc(Cl)cc23)c(OC)c1 was tested. Which Activity did it give?
A: inactive

Q: How did the Activity turn out when COc1ccccc1CNc1nc2c(S(=O)(=O)c3ccc(C)c(C)c3)nnn2c2ccc(Cl)cc12 was run?
A: inactive

Q: How did the Activity turn out when CC(=O)c1ccccc1N1CCN(c2nc3c(S(=O)(=O)c4ccccc4)nnn3c3ccc(Cl)cc23)CC1 was run?
A: inactive

Q: Which Activity does the source give for O=C1CCCN1CCCNc1nc2c(S(=O)(=O)c3ccc(Br)cc3)nnn2c2ccccc12 here?
A: inactive

Q: With Cc1ccc(S(=O)(=O)c2nnn3c2nc(N2CCCC2)c2ccccc23)cc1 as the molecule, how does the Activity read?
A: inactive

Q: How did the Activity turn out when Cc1ccc(CNc2nc3c(S(=O)(=O)c4cc(C)ccc4C)nnn3c3ccccc23)cc1 was run?
A: inactive

Q: CC(=O)c1ccc(Nc2nc3c(S(=O)(=O)c4ccc(C)c(C)c4)nnn3c3ccccc23)cc1 was tested. Which Activity did it give?
A: inactive

Q: With CCN(Cc1ccccc1)c1nc2c(S(=O)(=O)c3ccccc3)nnn2c2ccc(Cl)cc12 as the molecule, how does the Activity read?
A: inactive

Q: How did the Activity turn out when CCc1ccc(S(=O)(=O)c2nnn3c2nc(N2CCC(C)CC2)c2cc(Cl)ccc23)cc1 was run?
A: inactive

Q: With COc1cc(Nc2nc3c(S(=O)(=O)c4ccccc4)nnn3c3ccc(Cl)cc23)cc(OC)c1 as the molecule, how does the Activity read?
A: inactive

Q: With Cc1ccc(S(=O)(=O)c2nnn3c2nc(N2CCN(c4ccccc4F)CC2)c2ccccc23)cc1C as the molecule, how does the Activity read?
A: inactive

Q: Which Activity does the source give for CSc1cccc(Nc2nc3c(S(=O)(=O)c4ccccc4)nnn3c3ccc(Cl)cc23)c1 here?
A: inactive

Q: For Cc1ccc(C)c(S(=O)(=O)c2nnn3c2nc(Nc2ccc(C)c(C)c2)c2ccccc23)c1, which Activity is on record?
A: inactive

Q: For CCc1ccc(S(=O)(=O)c2nnn3c2nc(NCCC(C)C)c2cc(Cl)ccc23)cc1, which Activity is on record?
A: inactive

Q: Which Activity does the source give for Cc1ccc(S(=O)(=O)c2nnn3c2nc(N2CCCC(C)C2)c2cc(Cl)ccc23)cc1C (centres undefined) here?
A: inactive

Q: How did the Activity turn out when Cc1ccc(S(=O)(=O)c2nnn3c2nc(N2CCN(c4ccc(F)cc4)CC2)c2cc(Cl)ccc23)cc1C was run?
A: inactive

Q: CC(=O)NCCNc1nc2c(S(=O)(=O)c3ccc(C)c(C)c3)nnn2c2ccc(Cl)cc12 was tested. Which Activity did it give?
A: inactive

Q: For CCc1ccc(S(=O)(=O)c2nnn3c2nc(NC(C)C)c2cc(Cl)ccc23)cc1, which Activity is on record?
A: inactive

Q: Which Activity does the source give for Cc1ccc(S(=O)(=O)c2nnn3c2nc(N2CCC(C)CC2)c2cc(Cl)ccc23)cc1C here?
A: inactive

Q: For CCc1ccc(S(=O)(=O)c2nnn3c2nc(NCCNC(C)=O)c2cc(Cl)ccc23)cc1, which Activity is on record?
A: inactive

Q: Which Activity does the source give for O=S(=O)(c1ccc(Cl)cc1)c1nnn2c1nc(Cl)c1ccccc12 here?
A: inactive

Q: With CCc1ccc(S(=O)(=O)c2nnn3c2nc(N(CC)Cc2ccccc2)c2cc(Cl)ccc23)cc1 as the molecule, how does the Activity read?
A: inactive

Q: How did the Activity turn out when O=S(=O)(c1ccccc1)c1nnn2c1nc(N1CCCC1)c1cc(Cl)ccc12 was run?
A: inactive

Q: How did the Activity turn out when CCc1ccc(S(=O)(=O)c2nnn3c2nc(Nc2cc(OC)cc(OC)c2)c2cc(Cl)ccc23)cc1 was run?
A: inactive

Q: How did the Activity turn out when COc1ccc(Nc2nc3c(S(=O)(=O)c4ccccc4)nnn3c3ccc(Cl)cc23)cc1 was run?
A: inactive

Q: How did the Activity turn out when O=S(=O)(c1ccccc1)c1nnn2c1nc(Nc1ccccc1)c1cc(Cl)ccc12 was run?
A: inactive

Q: Which Activity does the source give for Cc1ccc(S(=O)(=O)c2nnn3c2nc(N2CCN(c4ccccc4F)CC2)c2cc(Cl)ccc23)cc1C here?
A: inactive

Q: For COCCCNc1nc2c(S(=O)(=O)c3ccccc3)nnn2c2ccc(Cl)cc12, which Activity is on record?
A: inactive

Q: With Cc1ccc(N2CCN(c3nc4c(S(=O)(=O)c5ccc(C)c(C)c5)nnn4c4ccccc34)CC2)c(C)c1 as the molecule, how does the Activity read?
A: inactive

Q: With COCCNc1nc2c(S(=O)(=O)c3ccccc3)nnn2c2ccc(Cl)cc12 as the molecule, how does the Activity read?
A: inactive

Q: For COc1ccc(Nc2nc3c(S(=O)(=O)c4ccccc4)nnn3c3ccc(Cl)cc23)cc1OC, which Activity is on record?
A: inactive

Q: How did the Activity turn out when CCc1ccc(S(=O)(=O)c2nnn3c2nc(N(C)Cc2ccccc2)c2cc(Cl)ccc23)cc1 was run?
A: inactive

Q: How did the Activity turn out when O=S(=O)(c1ccccc1)c1nnn2c1nc(NCc1ccccc1)c1cc(Cl)ccc12 was run?
A: inactive

Q: c1ccc(-c2nnn3c2nc(N2CCOCC2)c2ccccc23)cc1 was tested. Which Activity did it give?
A: inactive

Q: Which Activity does the source give for CCc1ccc(S(=O)(=O)c2nnn3c2nc(N2CCC(C(N)=O)CC2)c2cc(Cl)ccc23)cc1 here?
A: inactive

Q: Which Activity does the source give for CCc1ccc(S(=O)(=O)c2nnn3c2nc(N2CCCC(C)C2)c2cc(Cl)ccc23)cc1 (centres undefined) here?
A: inactive

Q: How did the Activity turn out when COc1ccc(CNc2nc3c(S(=O)(=O)c4ccccc4)nnn3c3ccc(Cl)cc23)cc1 was run?
A: inactive

Q: Which Activity does the source give for Nc1nc2c(C(=O)N3CCOCC3)nnn2c2ccccc12 here?
A: inactive

Q: How did the Activity turn out when O=S(=O)(c1ccccc1)c1nnn2c1nc(Cl)c1ccccc12 was run?
A: inactive

Q: For CCN(CC)c1nc2c(S(=O)(=O)c3ccccc3)nnn2c2ccccc12, which Activity is on record?
A: inactive

Q: CCOC(=O)C1CCCN(c2nc3c(S(=O)(=O)c4ccc(CC)cc4)nnn3c3ccc(Cl)cc23)C1 (centres undefined) was tested. Which Activity did it give?
A: inactive

Q: How did the Activity turn out when Cc1ccc(S(=O)(=O)c2nnn3c2nc(NC(C)C)c2cc(Cl)ccc23)cc1C was run?
A: inactive

Q: With Cc1ccc(CNc2nc3c(S(=O)(=O)c4ccc(C)c(C)c4)nnn3c3ccc(Cl)cc23)cc1 as the molecule, how does the Activity read?
A: inactive

Q: Which Activity does the source give for COc1ccccc1N1CCN(c2nc3c(S(=O)(=O)c4ccc(C)c(C)c4)nnn3c3ccc(Cl)cc23)CC1 here?
A: inactive

Q: How did the Activity turn out when CCc1ccc(S(=O)(=O)c2nnn3c2nc(NCc2ccccc2OC)c2cc(Cl)ccc23)cc1 was run?
A: inactive

Q: Which Activity does the source give for CCOC(=O)C1CCN(c2nc3c(S(=O)(=O)c4ccc(CC)cc4)nnn3c3ccc(Cl)cc23)CC1 here?
A: inactive

Q: For CCc1ccc(S(=O)(=O)c2nnn3c2nc(NCc2ccccc2)c2cc(Cl)ccc23)cc1, which Activity is on record?
A: inactive

Q: With CCOc1ccc(Nc2nc3c(S(=O)(=O)c4ccc(CC)cc4)nnn3c3ccc(Cl)cc23)cc1 as the molecule, how does the Activity read?
A: inactive

Q: Which Activity does the source give for Cc1ccc(S(=O)(=O)c2nnn3c2nc(N2CCN(c4cccc(C)c4C)CC2)c2ccccc23)cc1C here?
A: inactive

Q: COc1ccccc1Nc1nc2c(S(=O)(=O)c3c(C)cc(C)cc3C)nnn2c2ccccc12 was tested. Which Activity did it give?
A: inactive

Q: CCOCCCNc1nc2c(S(=O)(=O)c3ccc(CC)cc3)nnn2c2ccc(Cl)cc12 was tested. Which Activity did it give?
A: inactive

Q: How did the Activity turn out when CCN(Cc1ccccc1)c1nc2c(S(=O)(=O)c3ccc(C)c(C)c3)nnn2c2ccc(Cl)cc12 was run?
A: inactive

Q: CCOC(=O)C1CCCN(c2nc3c(S(=O)(=O)c4ccc(C)c(C)c4)nnn3c3ccc(Cl)cc23)C1 (centres undefined) was tested. Which Activity did it give?
A: inactive

Q: How did the Activity turn out when Cc1ccc(C)c(S(=O)(=O)c2nnn3c2nc(NCCC(C)C)c2ccccc23)c1 was run?
A: inactive

Q: For COc1ccccc1N1CCN(c2nc3c(S(=O)(=O)c4ccccc4)nnn3c3ccc(Cl)cc23)CC1, which Activity is on record?
A: inactive

Q: For COc1ccccc1CNc1nc2c(S(=O)(=O)c3ccccc3)nnn2c2ccc(Cl)cc12, which Activity is on record?
A: inactive

Q: For CC(=O)c1ccc(N2CCN(c3nc4c(S(=O)(=O)c5ccc(C)c(C)c5)nnn4c4ccc(Cl)cc34)CC2)cc1, which Activity is on record?
A: inactive

Q: With CC(=O)c1ccc(Nc2nc3c(S(=O)(=O)c4ccccc4)nnn3c3ccc(Cl)cc23)cc1 as the molecule, how does the Activity read?
A: inactive

Q: Which Activity does the source give for O=C(Nc1ccc(Nc2nc3c(S(=O)(=O)c4ccc(Br)cc4)nnn3c3ccccc23)cc1)c1ccco1 here?
A: inactive

Q: How did the Activity turn out when CC(=O)NCCNc1nc2c(-c3ccccc3)nnn2c2ccccc12 was run?
A: inactive

Q: How did the Activity turn out when Cc1ccc(S(=O)(=O)c2nnn3c2nc(N2CCC(C(N)=O)CC2)c2cc(Cl)ccc23)cc1C was run?
A: inactive

Q: Which Activity does the source give for NC(=O)C1CCN(c2nc3c(S(=O)(=O)c4ccc(Br)cc4)nnn3c3ccccc23)CC1 here?
A: inactive

Q: CCc1ccc(S(=O)(=O)c2nnn3c2nc(NCc2cccc(OC)c2)c2cc(Cl)ccc23)cc1 was tested. Which Activity did it give?
A: inactive

Q: How did the Activity turn out when CN(Cc1ccccc1)c1nc2c(S(=O)(=O)c3ccccc3)nnn2c2ccccc12 was run?
A: inactive

Each molecule was assayed on Staphylococcus aureus (assay: Antibacterial activity against Staphylococcus aureus RN4220 assessed as cell survival at 100 uM after 12 hrs by optical density plate reader method). Conditions: RN4220, 12 h.
Assay type: functional

Q: How did the survival at 100 µM turn out when Cn1c(=O)c2c(-c3ccc(Cl)cc3)n3c(c2n(C)c1=O)C(c1ccccc1)Nc1ccccc1-3 (centres undefined) was run?
A: 65%

Q: COc1ccc(-c2c3c(=O)n(C)c(=O)n(C)c3c3n2-c2ccccc2NC3c2ccco2)cc1 (centres undefined) was tested. Which survival at 100 µM did it give?
A: 57%

Q: How did the survival at 100 µM turn out when COc1ccc(-c2c3c(=O)n(C)c(=O)n(C)c3c3n2-c2ccccc2NC3c2ccccc2OC)cc1 (centres undefined) was run?
A: 67%

Q: With Cn1c(=O)c2c(-c3ccccc3)n3c(c2n(C)c1=O)C(c1ccc([N+](=O)[O-])cc1)Nc1ccccc1-3 (centres undefined) as the molecule, how does the survival at 100 µM read?
A: 49%

Q: With Cc1ccc(-c2c3c(=O)n(C)c(=O)n(C)c3c3n2-c2ccccc2NC3c2ccc(C)cc2O)cc1 (centres undefined) as the molecule, how does the survival at 100 µM read?
A: 34%

Q: With COc1ccc(O)c(C2Nc3ccccc3-n3c(-c4ccccc4)c4c(=O)n(C)c(=O)n(C)c4c32)c1 (centres undefined) as the molecule, how does the survival at 100 µM read?
A: 20%

Each molecule was assayed on Staphylococcus aureus (assay: Antibacterial activity against tarO deficient Staphylococcus aureus RN4220 assessed as cell survival at 100 uM after 12 hrs by optical density plate reader method). Conditions: RN4220, 12 h.
Assay type: functional

Q: Cn1c(=O)c2c(-c3ccc(Cl)cc3)n3c(c2n(C)c1=O)C(c1ccccc1)Nc1ccccc1-3 (centres undefined) was tested. Which survival at 100 µM did it give?
A: 74%

Q: With COc1ccc(-c2c3c(=O)n(C)c(=O)n(C)c3c3n2-c2ccccc2NC3c2ccco2)cc1 (centres undefined) as the molecule, how does the survival at 100 µM read?
A: 69%

Q: Which survival at 100 µM does the source give for COc1ccc(-c2c3c(=O)n(C)c(=O)n(C)c3c3n2-c2ccccc2NC3c2ccccc2OC)cc1 (centres undefined) here?
A: 85%

Q: With Cn1c(=O)c2c(-c3ccccc3)n3c(c2n(C)c1=O)C(c1ccc([N+](=O)[O-])cc1)Nc1ccccc1-3 (centres undefined) as the molecule, how does the survival at 100 µM read?
A: 73%

Q: For Cc1ccc(-c2c3c(=O)n(C)c(=O)n(C)c3c3n2-c2ccccc2NC3c2ccc(C)cc2O)cc1 (centres undefined), which survival at 100 µM is on record?
A: 64%

Q: With COc1ccc(O)c(C2Nc3ccccc3-n3c(-c4ccccc4)c4c(=O)n(C)c(=O)n(C)c4c32)c1 (centres undefined) as the molecule, how does the survival at 100 µM read?
A: 40%
